The source of these data is patent US8962600B2, “Neuroprotective compounds and their use” (The Medical College of Wisconsin, Inc., priority 2009, dated 2015).

Test [1] deals with BV2 microglial cells. Nature of the test: LPS-induced iNOS activation (nitrite, Griess reagent) in BV2 microglial cells. The format is cell-based, mouse. Conditions: 30 min pretreatment. The procedure: Two cell models of neuroinflammation were used to evaluate the anti-neuroinflammatory property of diapocynin including the mouse BV2 microglial cell line, as well as primary microglia isolated from mouse brains. BV2 cells were obtained from the American Tissue Culture Collection. BV2 cells were maintained in RPMI containing 10% FBS and 100 units of pen/strep at 37° C. and 5% CO2. For treatments, RPMI containing 2% FBS and 100 units of pen/strep was used.
Inducible nitric oxide synthase (iNOS or NOS2) activation was assessed by measuring nitrite levels using Griess reagent in a 96-well format (70-72). Each well contained 40,000 BV2 cells or 100,000 primary microglia. BV2 cells were cultured in 150 μl of RPMI containing 10% FBS and pen/strep, and the primary microglia were cultured in DMEM-F12 containing 10% FBS, pen/strep, sodium pyruvate (S/P), Q, and NEAAs. One day after culturing, cells were replaced with 150 μl of their respective complete media containing only 2% FBS. Both cell types were pretreated with diapocynin (10 μM) and apocynin (100 μM) for 30 min before LPS stimulation (1 μg/ml LPS for BV2 cells and 100 ng/ml for primary microglia), and the plates were incubated at 37° C. After 24 hr at 37° C., 100 μl of supernatant were removed and placed into a new 96 well plate, to which 100 μl of Griess reagent were added. The plate was shaken on a plate shaker for 10 min before being read in a plate reader at 540 nm.
This example generally followed the cell culture, treatment, and analysis steps of Example 4 above.
Diapocynin diacetate (diapodiacetate or diapo diace) suppresses LPS-induced NOS-2 in BV2 microglial cells (FIG. 21). BV-2 cells were plated in 96 well plates, 40,000 cells per well, and treated in 150 μl of RPMI containing 2% heat inactivated FBS and penicillin/streptomycin. Diapo diacetate was used on the cells as a 30 min pretreatment, then LPS (1 μg/ml) was added. All treatments were allowed to incubate at 37° C. for 24 hr, starting from the addition of LPS. One hundred microliter aliquots of supernatant from each well were combined with 100 μl of Griess reagent (Sigma) in a 96-well plate and allowed to shake for 10 minutes before being read on the plate reader. The percent nitrite level for the treatments compared to the control was graphed.

The test system of test [2] is MPTP mouse model of Parkinson's Disease. Nature of the test: HPLC analysis of striatal dopamine and its metabolites, MPTP mouse model (Example 3). The format is in vivo, C57BL/6 mice. Conditions: MPTP- and diapocynin-treated mice, diapocynin 300 mg/kg oral gavage, MPTP 25 mg/kg i.p. The procedure: Six- to 8-week-old C57BL/6 mice weighing 24 to 28 g were housed in standard conditions of constant temperature (22±1° C.), humidity (relative, 30%), and a 12-h light/dark cycle. Mice were allowed free access to food and water. Use of the animals and protocol procedures were approved and supervised by the Committee on Animal Care at Iowa State University (Ames, Iowa). For neurodegeneration studies, mice either received diapocynin (300 mg/kg dose) by oral gavage for 1 day (pre-treatment before MPTP administration), 5 days (co-treatment with MPTP), or 7 days (post-treatment after MPTP).
(§1) For checking inflammatory and oxidative stress markers, mice were gavaged diapocynin (300 mg/kg dose) 1 day before MPTP treatment (pre-treatment) and continued for another 4 days of co-treatment with MPTP. In the sub-acute MPTP regimen, MPTP (25 mg/kg) was injected intraperitoneally once per day from day 2 to day 7. Control mice received saline at the same dosage.
Striatal dopamine (DA), DOPAC and HVA levels were quantified by high-performance liquid chromatography (HPLC) with electrochemical detection. Samples were prepared and quantified as described previously (48, 56). In brief, 7 days after MPTP injection mice were sacrificed, striata were collected and stored at −80° C. On the day of analysis, neurotransmitters from striatal tissues were extracted using an antioxidant extraction solution (0.1 M perchloric acid containing 0.05% Na2EDTA and 0.1% Na2S2O5) and isoproterenol (as an internal standard). The extracts were filtered in 0.22 μm spin tubes, and 20 μl of the samples were loaded for analysis. DA, DOPAC and HVA were separated isocratically on a reversed-phase column with a flow rate of 0.6 ml/min. An HPLC system with an automatic sampler equipped with refrigerated temperature control (model 542; ESA, Inc., Bedford, Mass.) was used for HPLC analysis. The electrochemical detection system consisted of a Coulochem (model 5100A, ESA, Inc.) with a microanalysis cell (model 5014A, ESA, Inc.) and a guard cell (model 5020, ESA, Inc.). […]

The subject of test [3] is 4-hydroxynonenol (4-HNE). Kind of test: 4-hydroxynonenol expression in substantia nigra, Western blot and immunostaining. The test is classed as in vivo, C57BL/6 mice. The procedure:
as §1
Four days after MPTP treatment, mice were perfused with 4% paraformaldehyde (PFA) and post-fixed with PFA and 30% sucrose, respectively. Next, fixed brains were cut into 30 μm sections and kept in 30% sucrose-ethylene glycol solutions at −20° C. On the day of staining, sections were rinsed with phosphate-buffered saline (PBS) and incubated with different primary antibodies, including anti-IBA-1 (DAKO, Carpinteria, Calif.), anti-GFAP (Millipore, Billerica, Mass.), anti-iNOS (Santa Cruz Biotechnology, Santa Cruz, Calif.), anti-3NT (Millipore), anti-4HNE (R&D Systems, Minneapolis, Minn.) and anti-gp91phox (Santa Cruz Biotechnology) for overnight at 4° C. Appropriate secondary antibodies (Alexa Fluor 488, 594, or 555 from Invitrogen, Carlsbad, Calif.) were used followed by incubation with 10 μg/ml Hoechst 33342 for 5 min at room temperature to stain the nucleus. Sections were viewed under a Nikon inverted fluorescence microscope (model TE-2000U; Nikon, Tokyo, Japan). […]
In general terms: In western blotting, separated proteins are transferred to a membrane and probed.

As usually defined, the EC50 is the midpoint of the concentration-response curve. Consider `COc1cc(C(C)=O)cc(-c2cc(C(C)=O)cc(OC)c2O)c1O` [diapocynin], for which the “attenuating LPS-induced iNOS activation, compared with apocynin 100 μM” value in test [1] (BV2 cells, diapocynin 10 μM, LPS 1 μg/ml 24 hr) is “just as effective”. The EC50 in test [1] (Mus musculus, BV-2 cells, LPS 1 μg/ml, Griess reagent, non-linear regression of dose response curve, read-out: EC50, block of LPS-induced iNOS activation (nitrite level)) is 7.76 µM. In addition, in test [2], the “striatal DOPAC levels” value is “significant preservation” and the “striatal HVA levels” value is listed as “significant preservation”. In test [2] (7 days after MPTP), the “decrease of dopamine levels in striatum” value is listed as “less than 40%”. Moreover, in test [3] (diapocynin 300 mg/kg gavage, MPTP 25 mg/kg i.p., Western blot and immunostaining), the “MPTP-induced increase in expression of 4-HNE in substantia nigra” value is recorded as “attenuated”. In addition, in test [3] (double-label immunostaining, MPTP- and diapocynin-treated mice), the “colocalized cells of TH and 4-HNE in substantia nigra” value is recorded as “very few colocalized cells”.
